ΔTm and GI50 data for 17 compounds are collected here from EP4806898A1, “HETEROARYL DERIVATIVE COMPOUND AND USE THEREOF” (Voronoi Inc., priority 2023, dated 2025).

For one test, the target named is T1, recombinant USP1 protein (Homo sapiens, UniProt O94782, DEL125-138/DEL229-408/DEL608-737).
T1 sequence (O94782 with tags, fused parts or gaps DEL125-138/DEL229-408/DEL608-737): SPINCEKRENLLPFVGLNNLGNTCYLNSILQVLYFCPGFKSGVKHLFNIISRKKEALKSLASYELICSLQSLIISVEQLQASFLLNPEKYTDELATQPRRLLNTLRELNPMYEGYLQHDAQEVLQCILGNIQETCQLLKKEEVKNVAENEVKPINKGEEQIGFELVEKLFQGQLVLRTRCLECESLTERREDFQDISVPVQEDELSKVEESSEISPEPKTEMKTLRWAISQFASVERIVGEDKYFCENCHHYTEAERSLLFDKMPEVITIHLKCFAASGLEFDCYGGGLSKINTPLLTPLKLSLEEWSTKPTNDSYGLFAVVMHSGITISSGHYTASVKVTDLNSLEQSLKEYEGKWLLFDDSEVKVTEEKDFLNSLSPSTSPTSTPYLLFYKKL
As to the kind of experiment: Binding affinity to recombinant USP1 protein by differential scanning fluorimetry. Particulars: compound 100 µM; 0.03 mg/mL USP1 (Δ1-66, Δ125-138, Δ229-408, Δ608-737); Tm with compound minus Tm with DMSO; read-out: ΔTm (°C). In short, it runs like this: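 Thermal shift readout: ΔTm is the compound-well melting temperature less the DMSO-well value, measured by real-time PCR. Compounds tested at 100 µM final against 0.03 mg/mL truncated USP1 (Δ1-66, Δ125-138, Δ229-408, Δ608-737) in pH 8.0 Tris buffer containing 150 mM NaCl, 2% glycerol, 1 mM DTT.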

The test system of the next test is UWB1.289 cells. As to the kind of experiment: Cell proliferation inhibitory activity in BRCA1/2-mutant or HRD-positive cells (Cell Titer-Glo). The format is cell-based. Particulars: UWB1289; UWB1.289 cells, 144 hours after compound treatment, Cell Titer-Glo, 1.5 nM to 10 µM; read-out: GI50 UWB1.289 BRCA1 mut. The method, then: <Experimental Example 2> Evaluation of Cell Proliferation Inhibitory Activity in BRCA1/2-Mutant or HRD-Positive Cells
To evaluate the inhibitory activity of the compound according to the present invention on the proliferation of BRCA1/2 mutants or homologous recombination deficient (HRD) positive cell lines, the following experiments were performed. UWB1.289 cells were cultured in medium (50% MEBM + 50% RPMI1640), and 1,000 cells were seeded in a well plate (black clear bottom 96-well plate, Corning) 16 to 24 hours prior to compound treatment. The compounds were diluted in dimethyl sulfoxide (3-fold serial dilution starting at 10 µM, for a total of 10 concentrations) and injected at 1 µl per well, resulting a final concentration range of […] to 10 µM. Measurements of live cells were performed by a reaction in a 37 °C and CO2 incubator for 144 hours after compound treatment. The cells were incubated for 10 minutes in an incubator using Cell Titer-Glo luminescent cell-viability reagent (Promega), and luminescence intensity thereof was measured using a reader (SynergyNeo2, Biotek). GI50 values were calculated using the GraphPad Prism version 8.4.3 (GraphPad software Inc., San Diego) program.

Turning to `COC[C@H](C)NC(=O)c1cc2cnc(-c3c(OC)ncnc3C3CC3)nc2n1Cc1ccc(-c2nc(C(F)(F)F)cn2C(C)C)cc1` [Example 23, (S)-2-(4-cyclopropyl-6-methoxypyrimidin-5-yl)-7-(4-(1-isopropyl-4-(trifluoromethyl)-1H-imidazol-2-yl)benzyl)-N-(1-methoxypropan-2-yl)-7H-pyrrolo[2,3-d]pyrimidine-6-carboxamide], the ΔTm at 100 µM at recombinant USP1 protein was over 5 °C. Further, the GI50 in the test with UWB1.289 cells is under 100 nM.

`COc1ncnc(C2CC2)c1-c1ncc2cc(C(=O)N3CCN(C)CC3)n(Cc3ccc(-c4nc(C(F)(F)F)cn4C(C)C)cc3)c2n1` [Example 24, (2-(4-cyclopropyl-6-methoxypyrimid in-5-yl)-7-(4-(1-isopropyl-4-(trifluoromethyl)-1H-imidazol-2-yl)benzyl)-7H-pyrrolo[2,3-d]pyrimidin-6-yl) (4-methylpiperazi n-1-yl)methanone]: the ΔTm at 100 µM at recombinant USP1 protein is over 5 °C. For the same compound, the concentration for 50% growth inhibition (GI50) with UWB1.289 cells is under 100 nM.

For the compound `COc1ncnc(C2CC2)c1-c1ncc2cc(C(=O)N3CCN(C4COC4)CC3)n(Cc3ccc(-c4nc(C(F)(F)F)cn4C(C)C)cc3)c2n1` [Example 25, (2-(4-cyclopropyl-6-methoxypyrimid in-5-yl)-7-(4-(1-isopropyl-4-(trifluoromethyl)-1H-imidazol-2-yl)benzyl)-7H-pyrrolo[2,3-d]pyrimidin-6-yl) (4-(oxetan-3-yl)piperazin-1-yl)methanone], the ΔTm at 100 µM on recombinant USP1 protein was over 5 °C. Besides, in the test on UWB1.289 cells, the GI50 was under 100 nM.

As to `CNCCN(C)C(=O)c1cc2cnc(-c3c(OC)ncnc3C3CC3)nc2n1Cc1ccc(-c2nc(C(F)(F)F)cn2C(C)C)cc1` [Example 26, 2-(4-cyclopropyl-6-methoxypyrimidin-5-yl)-7-(4-(1-isopropyl-4-(trifluoromethyl)-1H-imidazol-2-yl)benzyl)-N-methyl-N-(2-(methylamino)ethyl)-7H-pyrrolo[2,3-d]pyrimidine-6-carboxamide], the ΔTm at 100 µM at recombinant USP1 protein was over 5 °C. In addition, the GI50 in the test on UWB1.289 cells was under 100 nM.

For the compound `COc1ncnc(C2CC2)c1-c1ncc2cc(C(=O)Nc3cccc4ccccc34)n(Cc3ccc(-c4nc(C(F)(F)F)cn4C(C)C)cc3)c2n1` [Example 28, 2-(4-cyclopropyl-6-methoxypyrimidin-5-yl)-7-(4-(1-isopropyl-4-(trifluoromethyl)-1H-imidazol-2-yl)benzyl)-N-(naphthalen-1-yl)-7H-pyrrolo[2,3-d]pyrimidine-6-carboxamide], the ΔTm at 100 µM on recombinant USP1 protein is over 5 °C. Also, in the test with UWB1.289 cells, the GI50 was under 100 nM.

For `COc1ncnc(C2CC2)c1-c1ncc2cc(C(=O)NCC(C)=O)n(Cc3ccc(-c4nc(C(F)(F)F)cn4C(C)C)cc3)c2n1` [Example 29, 2-(4-cyclopropyl-6-methoxypyrimidin-5-yl)-7-(4-(1-isopropyl-4-(trifluoromethyl)-1H-imidazol-2-yl)benzyl)-N-(2-oxopropyl)-7H-pyrrolo[2,3-d]pyrimidine-6-carboxamide], the ΔTm at 100 µM at recombinant USP1 protein was over 5 °C. Moreover, in the test on UWB1.289 cells, the GI50 was under 100 nM.

For `COc1ncnc(C2CC2)c1-c1ncc2cc(C(=O)Nc3cnn(C)c3)n(Cc3ccc(-c4nc(C(F)(F)F)cn4C(C)C)cc3)c2n1` [Example 30, 2-(4-cyclopropyl-6-methoxypyrimidin-5-yl)-7-(4-(1-isopropyl-4-(trifluoromethyl)-1H-imidazol-2-yl)benzyl)-N-(1-methyl-1H-pyrazol-4-yl)-7H-pyrrolo[2,3-d]pyrimidine-6-carboxamide], the ΔTm at 100 µM on recombinant USP1 protein was over 5 °C. The GI50 in the test with UWB1.289 cells was under 100 nM.

Consider `COc1ncnc(C2CC2)c1-c1ncc2cc(C(=O)Nc3nccs3)n(Cc3ccc(-c4nc(C(F)(F)F)cn4C(C)C)cc3)c2n1` [Example 31, 2-(4-cyclopropyl-6-methoxypyrimidin-5-yl)-7-(4-(1-isopropyl-4-(trifluoromethyl)-1H-imidazol-2-yl)benzyl)-N-(thiazol-2-yl)-7H-pyrrolo[2,3-d]pyrimidine-6-carboxamide], for which the ΔTm at 100 µM on recombinant USP1 protein was over 5 °C. In the test with UWB1.289 cells, the GI50 lay within 100 to 500 nM.

As to `COc1ncnc(C2CC2)c1-c1ncc2cc(C(N)=O)n(Cc3ccc(-c4nc(C(F)(F)F)cn4C(C)C)cc3)c2n1` [Example 32, 2-(4-cyclopropyl-6-methoxypyrimidin-5-yl)-7-(4-(1-isopropyl-4-(trifluoromethyl)-1H-imidazol-2-yl)benzyl)-7H-pyrrolo[2,3-d]pyrimidine-6-carboxamide], the ΔTm at 100 µM at recombinant USP1 protein was over 5 °C. Further, in the test on UWB1.289 cells, the GI50 is under 100 nM.

For the compound `COc1ncnc(C2CC2)c1-c1ncc2cc(C(=O)NCCCN(C)C)n(Cc3ccc(-c4nc(C(F)(F)F)cn4C(C)C)cc3)c2n1` [Example 33], the ΔTm at 100 µM on recombinant USP1 protein is over 5 °C. Further, in the test on UWB1.289 cells, the GI50 was under 100 nM.

Consider `COc1ncnc(C2CC2)c1-c1ncc2cc(C(=O)NCCC(F)(F)F)n(Cc3ccc(-c4nc(C(F)(F)F)cn4C(C)C)cc3)c2n1` [Example 34, 2-(4-cyclopropyl-6-methoxypyrimidin-5-yl)-7-(4-(1-isopropyl-4-(trifluoromethyl)-1H-imidazol-2-yl)benzyl)-N-(3,3,3-trifluoropropyl)-7H-pyrrolo[2,3-d]pyrimidine-6-carboxamide], for which the ΔTm at 100 µM on recombinant USP1 protein is over 5 °C. Moreover, in the test on UWB1.289 cells, the GI50 fell in the range of 100 to 500 nM.

Consider `COc1ncnc(C2CC2)c1-c1ncc2cc(C(=O)N3CC4(COC4)C3)n(Cc3ccc(-c4nc(C(F)(F)F)cn4C(C)C)cc3)c2n1` [Example 35, (2-(4-cyclopropyl-6-methoxypyrimid in-5-yl)-7-(4-(1-isopropyl-4-(trifluoromethyl)-1H-imidazol-2-yl)benzyl)-7H-pyrrolo[2,3-d]pyrimidin-6-yl) (2-oxa-6-azaspiro[3.3]heptan-6-yl)methanone], for which the ΔTm at 100 µM at recombinant USP1 protein was over 5 °C. Further, in the test with UWB1.289 cells, the GI50 was under 100 nM.

On to `COc1ncnc(C2CC2)c1-c1ncc2cc(C(=O)NC3CNC3)n(Cc3ccc(-c4nc(C(F)(F)F)cn4C(C)C)cc3)c2n1` [Example 36, N-(azetidin-3-yl)-2-(4-cyclopropyl-6-methoxypyrimidin-5-yl)-7-(4-(1-isopropyl-4-(trifluoromethyl)-1H-imidazol-2-yl)benzyl)-7H-pyrrolo[2,3-d]pyrimidine-6-carboxamide], for which the ΔTm at 100 µM on recombinant USP1 protein is over 5 °C. The GI50 in the test with UWB1.289 cells fell in the range of 100 to 500 nM.

For the compound `CCCNC(=O)c1cc2cnc(-c3c(OC)ncnc3C3CC3)nc2n1Cc1ccc(-c2nc(C(F)(F)F)cn2C(C)C)cc1` [Example 37, 2-(4-cyclopropyl-6-methoxypyrimidin-5-yl)-7-(4-(1-isopropyl-4-(trifluoromethyl)-1H-imidazol-2-yl)benzyl)-N-propyl-7H-pyrrolo[2,3-d]pyrimidine-6-carboxamide], the thermal shift (ΔTm) at 100 µM on recombinant USP1 protein was over 5 °C. Further, the concentration for 50% growth inhibition (GI50) in the test with UWB1.289 cells is under 100 nM.

Turning to `COc1ncnc(C2CC2)c1-c1ncc2cc(C(=O)N(C)CCN(C)C)n(Cc3ccc(-c4nc(C(F)(F)F)cn4C(C)C)cc3)c2n1` [Example 38, 2-(4-cyclopropyl-6-methoxypyrimidin-5-yl)-N-(2-(dimethylamino)ethyl)-7-(4-(1-isopropyl-4-(trifluoromethyl)-1H-imidazol-2-yl)benzyl)-N-methyl-7H-pyrrolo [2,3-d]pyrimidine-6-carboxamide], the ΔTm at 100 µM on recombinant USP1 protein was over 5 °C. Moreover, in the test with UWB1.289 cells, the GI50 was under 100 nM.

For the compound `COc1ncnc(C2CC2)c1-c1ncc2cc(C(=O)N3CC[C@@H](N(C)C)C3)n(Cc3ccc(-c4nc(C(F)(F)F)cn4C(C)C)cc3)c2n1` [Example 39, (R)-(2-(4-cyclopropyl-6-methoxypyrimidin-5-yl)-7-(4-(1-isopropyl-4-(trifluoromethyl)-1H-imidazol-2-yl)benzyl)-7H-pyrrolo[2,3-d]pyrimidin-6-yl) (3-(dimethylamino)pyrrolidin-1-yl)methanone], at recombinant USP1 protein, the ΔTm at 100 µM is over 5 °C. Moreover, the concentration for 50% growth inhibition (GI50) with UWB1.289 cells lay within 100 to 500 nM.

Consider `COc1ncnc(C2CC2)c1-c1ncc2cc(C(=O)N3CC(F)(F)C3)n(Cc3ccc(-c4nc(C(F)(F)F)cn4C(C)C)cc3)c2n1` [Example 40, (2-(4-cyclopropyl-6-methoxypyrimid in-5-yl)-7-(4-(1-isopropyl-4-(trifluoromethyl)-1H-imidazol-2-yl)benzyl)-7H-pyrrolo[2,3-d]pyrimidin-6-yl) (3,3-difluoroazetid in-1-yl)methanone], for which the thermal shift (ΔTm) at 100 µM on recombinant USP1 protein is over 5 °C. In addition, the GI50 in the test on UWB1.289 cells lay within 100 to 500 nM.
